Experiment: relative stability of linezolid crystal forms
Format: physicochemical
Conditions: temperature below about 85° (degrees Centigrade)

stability of the crystal form relative to other solid forms (e.g. Form I): most stable form below about 85°
SMILES: CC(=O)NC[C@H]1CN(c2ccc(N3CCOCC3)c(F)c2)C(=O)O1 [Crystal Form II, (S)-N-[[3-[3-fluoro-4-(4-morpholinyl)phenyl]-2-oxo-5-oxazolidinyl]methyl]acetamide]

— US6559305B1, “Linezolid—crystal form II” (Pharmacia & Upjohn Company, priority 2000, dated 2003)
